Laboratory results as given in US20230130132A1, “PHARMACEUTICAL COMPOSITIONS COMPRISING AMPHIPHILIC PEPTIDES AND METHODS OF USE THEREOF” (BONE SCI. BIO LTD., priority 2020, published 2023).
No end group written: not given here.

Experiments:
pH of the composition = format: physicochemical; conditions: 5% w/v in deionized water, clear solution
[1] = PFD5 sodium dissolved in HCl: peptide to acid mole ratio for stable hydrogel, pKa; format: physicochemical; conditions: aqueous HCl solution (hydrogel); 1% (w/v) PFD5; pH at which half of the Asp residues are assumed protonated
Protocol: Different mole ratios of PFD5 sodium to HCl were generated by dissolving the peptide in an HCl solution using a magnetic stirrer. Following mixing for a few minutes, hydrogel formation was tested (Table 2 and FIG. 1A-1B). […] At a 1:6 ratio, the stable hydrogel appeared opaquer.
At a 1:4 ratio, the stable hydrogel appeared opaquer.
At this peptide concentration, the mole ratio of the peptide to acid was determined to be 1:1.67 to afford a stable clear hydrogel (FIG. 1B).

| Substance | pH of solution (pH of the composition) | pKa [1] |
| --- | --- | --- |
| Doxycycline hyclate | 1.93 | – |
| PDFDFDFDFDFDP [PFD5, Pro-(Asp-Phe)5-Asp-Pro] | – | ~5.95 |
